From patent US20220160703A1, “TUMOR-SELECTIVE COMBINATION THERAPY” (The Board of Regents of The University of Texas System, priority 2019, published 2022)

System: HMGB1
Assay: HMGB1 release detection (ELISA)
Assay type: cell-based, murine
Conditions: NQO1+ tumor cells (MC38, TC-1, NQO1-overexpressing B16), β-lap 3 hr, 24 hr later
Experimental: FIGS. 5A-F. β-Lap treatment-induced HMGB1 release enhances tumor immunogenicity and triggers antitumor T cell immunity in vivo. (FIG. 5A) MC38, TC-1 and B16 (NQO null and overexpression clones) were treated with β-lap for 3 hr followed by washing and replacing medium. The level of HMGB1 released into the culture supernatant was determined by ELISA 24 hr later. (FIG. 5B) The research schema for in vivo cross-presentation of tumor specific antigen from β-lap-induced dying tumor cells in FIG. 5C and FIG. 5D. (FIGS. 5C-D) Live or β-lap-induced dying MC38-OVA cells were subcutaneously inoculated into the flank of WT or Tlr4^−/− C57BL/6 (n=3-4/group) mice along with or without anti-HMGB1 antibody. […] IFNγ producing cells were determined by ELISPOTs assay (FIG. 5C), and IFNγ secretion level was quantified by CBA mouse IFNγ assay (FIG. 5D). […] Data are shown as mean±SEM from at least two to three independent experiments. *P<0.05, **P<0.01, and ***P<0.001 determined by two-way ANOVA (FIG. 5C and FIG. 5D) or log-rank test (FIG. 5F).
FIGS. 25A-E. IB-DNQ induces tumor ICD and dendritic cell-mediated T cell cross-priming. […] MC38, MC38 NOQ1^−/−, B16, and B16 NOQ1^+ cells were treated with IB-DNQ for 4 h followed by replacing medium and growth for 24 h, culture supernatant was collected and HMGB1 levels were determined by ELISA. […]

CC1(C)CCC2=C(O1)c1ccccc1C(=O)C2=O [β-lap, β-lapachone]
HMGB1 secretion: dose-dependent secretion of HMGB1
